The target in one experiment is BRD4 protein (Homo sapiens (Human), UniProt O60885). Briefly: BRD4 protein degradation inducing action in cancer cells (immunofluorescence, Operetta). Type of experiment: cell-based. To be noted: LNCaP cells, 6 hr treatment, fluorescence intensity. The protocol: The degradation inducing action of the compound of the present invention on BRD4 protein in cancer cells was evaluated in vitro using human prostate cancer LNCaP cells. LNCaP cells were suspended in 10% FBS/RPMI1640, seeded in a 96 well Cell carrier plate (Perkin Elmer) and cultured at 5% CO2, 37° C. overnight. A test compound dissolved in DMSO was diluted with 10% FBS/RPMI1640 and added and the cells were further cultured for 6 hr. After culturing, the cells were immobilized with 4% para-formaldehyde/PBS and further subjected to a permeation treatment with 0.25% Triton X-100/PBS. Thereafter, the cells were blocked with 10% BSA/PBS, a solution containing Anti-Brd4 antibody (Abcam) or Anti-BRD4 (Sigma-Aldrich) as the primary antibody was added and the cells were incubated at 4° C. overnight. Thereafter, as the secondary antibody, a solution containing secondary antibody A shown below was added to Example compounds 1-190, 223 and 224, and a solution containing secondary antibody B shown below was added to Example compounds 191-222, and 0.5 μg/mL Hoechst 33342 (Sigma-Aldrich) and 14 μM Acti-Stain 555 Fluorescent Phalloidin (Cytoskeleton) were further added. After incubation for 1 hr, BRD4 protein amount was measured by Operetta (Perkin Elmer) as fluorescence intensity.
• Anti-Rabbit IgG(H+L), F(ab′)2 Fragment (Alexa Fluor 488 Conjugate) (Cell Signaling Technology), fluorescence intensity was measured at excitation: 495 nm, emission: 519 nm. Secondary Antibody B • Goat anti-Rabbit IgG(H+L) Cross-Adserbed Secondary Antibody (Alexa Fluor 546) (Thermo Fisher Scientific) fluorescence intensity was measured at excitation: 560 nm, emission: 572 nm.
The BRD4 protein degradation inducing activity of the compound of the present invention in LNCaP cells is shown in DC50 value in Table 3. The DC50 value is a concentration of the compound showing 50% fluorescence intensity when the fluorescence intensity thereof under compound untreated condition is 100%. It was calculated from the straight line connecting the fluorescence intensity at two points enclosing the 50% fluorescence intensity and the compound concentration.

For experiment [1], the system named is human prostate cancer LNCaP cells. Briefly: Cytotoxic action on cancer cells (WST-8, 96 hr). Type of experiment: cell-based. The conditions noted are these: Homo sapiens, LNCaP, 96 h, read-out: LNCaP cytotoxic activity: IC50. The protocol: The cytotoxic action of the compound of the present invention against human cancer cells was evaluated in vitro. In this experiment, (+)-JQ1 (Nature volume 468, pages 1067-1073 (23 Dec. 2010)) known to have an inhibitory activity on the binding of BRD4 protein and a ligand therefor was used as a positive control drug. Respective cells were suspended in 10% FBS/RPMI1640, seeded in a 96 well plate and cultured at 5% CO2, 37° C. overnight. A test compound dissolved in DMSO was diluted with 10% FBS/RPMI1640 and added and the cells were further cultured for 96 hr. After culturing, the viable cell number was measured using a cell number measurement WST-8 kit (Kishida Chemical Co., Ltd.). As a control, the measurement was performed under conditions free of the test compound. The cytotoxic activity of the compound of the present invention against human prostate cancer LNCaP cells is shown in IC50 value in Table 1. […] It was calculated from the straight line connecting the cell survival rate at two points enclosing the 50% cell survival rate and the compound concentration. In addition, the cytotoxic activity against respective cancer cells of human acute myeloid leukemia MV-4-11 cell, human chronic myeloid leukemia K562 cell, human multiple myeloma MM.1S cell, human diffuse large B-cell lymphoma SU-DHL-6 cell, human T-cell leukemia Jurkat cells, human Burkitt lymphoma Raji cell, human castration-resistant prostate cancer PC-3 cell, human ovarian cancer A2780 cell, human bladder cancer 5637 cell, human breast cancer ZR-75-1 cell, human triple negative breast cancer MDA-MB-231 cell, human uterine sarcoma MES-SA cell, human gastric cancer SNU-16 cell, human non-small cell lung cancer NCI-H1975 cell, human small cell lung cancer NCI-H82 cell, human large cell lung cancer NCI-H460 cell, human colorectal cancer HCT116 cell, human glioma U-87 MG cell, human pancreatic cancer AsPC-1 cell, and human liver cancer Hep G2 cell is shown in IC50 value in Table 2.
On the technique in general: Tetrazolium assays rely on reduction of a dye to a coloured formazan, in cell work by metabolically active cells.

With `COC(=O)C[C@@H]1N=C(c2ccc(NC(=O)CCc3ccc(OCCOCCOCCOCCOCCOCCOCCOCC(=O)N[C@H](C(=O)N4C[C@H](O)C[C@H]4C(=O)N[C@@H](C)c4ccc(-c5scnc5C)cc4)C(C)(C)C)cc3)cc2)c2c(sc(C)c2C)-n2c(C)nnc21` [Example 5, methyl [(6S)-4-(4-{3-[4-({(25S)-25-[(2S,4R)-4-hydroxy-2-({(18)-1-[4-(4-methyl-1,3-thiazol-5-yl)phenyl]ethyl}carbamoyl)pyrrolidine-1-carbonyl]-26,26-dimethyl-23-oxo-3,6,9,12,15,18,21-heptaoxa-24-azaheptacosan-1-yl}oxy)phenyl]propanamido}phenyl)-2,3,9-trimethyl-6H-thieno[3,2-f][1,2,4]triazolo[4,3-a][1,4]diazepin-6-yl]acetate], the DC50 (in general, the concentration at which degradation of the target reaches its halfway point) at BRD4 protein was 0.52 nM. In addition, in experiment [1], the concentration for half-maximal inhibition (IC50) (usually the concentration that gives 50% inhibition) amounted to 1.2 nM.
`COC(=O)C[C@@H]1N=C(c2ccc(-c3ccc(OCC(=O)N[C@H](C(=O)N4C[C@H](O)C[C@H]4C(=O)N[C@@H](C)c4ccc(-c5scnc5C)cc4)C(C)(C)C)cc3)cc2)c2c(sc(C)c2C)-n2c(C)nnc21` [Example 15, methyl [(6S)-4-{4′-[2-({(2S)-1-[(2S,4R)-4-hydroxy-2-({(1S)-1-[4-(4-methyl-1,3-thiazol-5-yl)phenyl]ethyl}carbamoyl)pyrrolidin-1-yl]-3,3-dimethyl-1-oxobutan-2-yl}amino)-2-oxoethoxy][1,1′-biphenyl]-4-yl}-2,3,9-trimethyl-6H-thieno[3,2-f][1,2,4]triazolo[4,3-a][1,4]diazepin-6-yl]acetate] returned a DC50 at BRD4 protein of 0.066 nM. Besides, in experiment [1], the half-maximal inhibitory concentration (IC50) worked out at 0.083 nM.
As for `Cc1ncsc1-c1ccc([C@H](C)NC(=O)[C@@H]2C[C@@H](O)CN2C(=O)[C@@H](NC(=O)COc2ccc(-c3ccc(C4=N[C@@H](C)c5nnc(C)n5-c5sc(C)c(C)c54)cc3)cc2C#N)C(C)(C)C)cc1` [Example 16, (2S,4R)-1-{(2S)-2-[2-({3-cyano-4′-[(6S)-2,3,6,9-tetramethyl-6H-thieno[3,2-f][1,2,4]triazolo[4,3-a] [1,4]diazepin-4-yl][1,1′-biphenyl]-4-yl}oxy)acetamido]-3,3-dimethylbutanoyl}-4-hydroxy-N-{(1S)-1-[4-(4-methyl-1,3-thiazol-5-yl)phenyl]ethyl}pyrrolidine-2-carboxamide], half-maximal degradation on BRD4 protein (DC50) was put at 0.53 nM. In addition, the IC50 in experiment [1] came out at 0.29 nM.
Take `COC(=O)C[C@@H]1N=C(c2ccc(-c3ccc(/C=C/C(=O)N[C@H](C(=O)N4C[C@H](O)C[C@H]4C(=O)N[C@@H](C)c4ccc(-c5scnc5C)cc4)C(C)(C)C)cc3)cc2)c2c(sc(C)c2C)-n2c(C)nnc21` [Example 27, methyl [(6S)-4-{4′-[(1E)-3-({(2S)-1-[(2S,4R)-4-hydroxy-2-({(1S)-1-[4-(4-methyl-1,3-thiazol-5-yl)phenyl]ethyl}carbamoyl)pyrrolidin-1-yl]-3,3-dimethyl-1-oxobutan-2-yl}amino)-3-oxopropen-1-yl][1,1′-biphenyl]-4-yl}-2,3,9-trimethyl-6H-thieno[3,2-f][1,2,4]triazolo[4,3-a] [1,4]diazepin-6-yl]acetate]: it took 0.085 nM to reach half-maximal degradation at BRD4 protein (DC50). The IC50 in experiment [1] turned out to be 0.064 nM.
For `COC(=O)C[C@@H]1N=C(c2ccc(-c3ccc(CCC(=O)N[C@H](C(=O)N4C[C@H](O)C[C@H]4C(=O)N[C@@H](C)c4ccc(-c5scnc5C)cc4)C(C)(C)C)cc3)cc2)c2c(sc(C)c2C)-n2c(C)nnc21` [Example 28, methyl [(6S)-4-{4′-[3-({(2S)-1-[(2S,4R)-4-hydroxy-2-({(1S)-1-[4-(4-methyl-1,3-thiazol-5-yl)phenyl]ethyl}carbamoyl)pyrrolidin-1-yl]-3,3-dimethyl-1-oxobutan-2-yl}amino)-3-oxopropyl][1,1′-biphenyl]-4-yl}-2,3,9-trimethyl-6H-thieno[3,2-f][1,2,4]triazolo[4,3-a][1,4]diazepin-6-yl]acetate], half-maximal degradation at BRD4 protein (DC50) was put at 0.023 nM. Moreover, the IC50 in experiment [1] stood at 0.044 nM.
Taken in the same sequence, the figures for `Cc1ncsc1-c1ccc([C@H](C)NC(=O)[C@@H]2C[C@@H](O)CN2C(=O)[C@@H](NC(=O)COc2ccc(-c3ccc(C4=NC(O)c5nnc(C)n5-c5sc(C)c(C)c54)cc3)cc2)C(C)(C)C)cc1` (stereo partly drawn) [Example 30, (2S,4R)-4-hydroxy-1-[(2S)-2-(2-{[4′-(6-hydroxy-2,3,9-trimethyl-6H-thieno[3,2-f][1,2,4]triazolo[4,3-a][1,4]diazepin-4-yl)[1,1′-biphenyl]-4-yl]oxy}acetamido)-3,3-dimethylbutanoyl]-N-{(1S)-1-[4-(4-methyl-1,3-thiazol-5-yl)phenyl]ethyl}pyrrolidine-2-carboxamide] were 0.43 nM and 0.99 nM.
In turn, `Cc1ncsc1-c1ccc([C@H](C)NC(=O)[C@@H]2C[C@@H](O)CN2C(=O)[C@@H](NC(=O)COc2ccc(-c3ccc(C4=N[C@@H](C)c5nnc(C)n5-c5sc(C)c(C)c54)cc3)cc2)C(C)(C)C)cc1` [Example 33, (2S,4R)-1-{(2S)-3,3-dimethyl-2-[2-({4′-[(6S)-2,3,6,9-tetramethyl-6H-thieno[3,2-f][1,2,4]triazolo[4,3-a] [1,4]diazepin-4-yl][1,1′-biphenyl]-4-yl}oxy)acetamido]butanoyl}-4-hydroxy-N-{(1S)-1-[4-(4-methyl-1,3-thiazol-5-yl)phenyl]ethyl}pyrrolidine-2-carboxamide] came in with a DC50 on BRD4 protein of 0.38 nM. Moreover, in experiment [1], the concentration for half-maximal inhibition (IC50) is 0.26 nM.
For the molecule `CC(=O)NC1N=C(c2ccc(-c3ccc(OCC(=O)N[C@H](C(=O)N4C[C@H](O)C[C@H]4C(=O)N[C@@H](C)c4ccc(-c5scnc5C)cc4)C(C)(C)C)cc3)cc2)c2c(sc(C)c2C)-n2c(C)nnc21` (stereo partly drawn) [Example 34, (2S,4R)-1-[(2S)-2-(2-{[4′-(6-acetamido-2,3,9-trimethyl-6H-thieno[3,2-f][1,2,4]triazolo[4,3-a][1,4]diazepin-4-yl) [1,1′-biphenyl]-4-yl]oxy}acetamido)-3,3-dimethylbutanoyl]-4-hydroxy-N-{(1S)-1-[4-(4-methyl-1,3-thiazol-5-yl)phenyl]ethyl}pyrrolidine-2-carboxamide], at BRD4 protein, the DC50 was 0.098 nM. Further, in experiment [1], the half-inhibitory concentration (IC50) was found to be 0.72 nM.
Regarding `COC(=O)N(C)C1N=C(c2ccc(-c3ccc(OCC(=O)N[C@H](C(=O)N4C[C@H](O)C[C@H]4C(=O)N[C@@H](C)c4ccc(-c5scnc5C)cc4)C(C)(C)C)cc3)cc2)c2c(sc(C)c2C)-n2c(C)nnc21` (stereo partly drawn) [Example 35, methyl (4-{4′-[2-({(2S)-1-[(2S,4R)-4-hydroxy-2-({(1S)-1-[4-(4-methyl-1,3-thiazol-5-yl)phenyl]ethyl}carbamoyl)pyrrolidin-1-yl]-3,3-dimethyl-1-oxobutan-2-yl}amino)-2-oxoethoxy][1,1′-biphenyl]-4-yl}-2,3,9-trimethyl-6H-thieno[3,2-f][1,2,4]triazolo[4,3-a][1,4]diazepin-6-yl)methylcarbamate], it took 0.66 nM to reach half-maximal degradation at BRD4 protein (DC50). Also, in experiment [1], the IC50 came out at 3.9 nM.
With `COC(=O)C[C@@H]1N=C(c2ccc(-c3ccc(COCC(=O)N[C@H](C(=O)N4C[C@H](O)C[C@H]4C(=O)N[C@@H](C)c4ccc(-c5scnc5C)cc4)C(C)(C)C)cc3)cc2)c2c(sc(C)c2C)-n2c(C)nnc21` [Example 39, methyl [(6S)-4-(4′-{[2-({(2S)-1-[(2S,4R)-4-hydroxy-2-({(1S)-1-[4-(4-methyl-1,3-thiazol-5-yl)phenyl]ethyl}carbamoyl)pyrrolidin-1-yl]-3,3-dimethyl-1-oxobutan-2-yl}amino)-2-oxoethoxy]methyl}[1,1′-biphenyl]-4-yl)-2,3,9-trimethyl-6H-thieno[3,2-f][1,2,4]triazolo[4,3-a] [1,4]diazepin-6-yl]acetate], the DC50 at BRD4 protein amounted to 0.013 nM. For the same molecule, the IC50 in experiment [1] was found to be 0.071 nM.

Source of the values: patent US11542273B2, “Amide compound having bet proteolysis-inducing action and medicinal application thereof” (MITSUBISHI TANABE PHARMA CORPORATION, priority 2018, dated 2023).
